This note sets out measurements from US11613542B2, “Sulfonylureas and sulfonylthioureas as NLRP3 inhibitors” (Inflazome Limited, priority 2017, dated 2023).

Data set [1] is described as follows: Pharmacokinetic parameters in male Sprague Dawley rats (intravenous and oral administration). As to conditions: dose per compound (mg/kg). It counts as in vivo. An outline of the steps: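 IV dosing via tail vein (solution in water or DMSO:PBS 10:90) and oral dosing (water or DMSO:water 10:90); some oral groups fasted overnight. Serial plasma sampled at 8, 9 or 12 time-points up to 24 h post dose. PK parameters derived from LC-MS/MS plasma concentrations.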

Data set [2] addresses T1, NLRP3 (Homo sapiens, UniProt Q96P20). The experiment in a line: THP-1 cells pyroptosis assay. It counts as cell-based. Also on record: Seed THP-1 cells (25,000 cells/well) containing 1.0 μg/ml LPS; host or cells: THP-1 cells, LPS-primed, nigericin-stimulated. As to conditions: THP-1 cells, 1.0 μg/ml LPS, compound 3 hrs, nigericin 5 μM 1 hr, resazurin readout; read-out: THP IC50. The essentials: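 THP-1 cells (25,000/well) in serum-free RPMI with 1.0 μg/ml LPS, treated with compound (8-point half-log dilution, 10 μM top, 0.1% DMSO), then nigericin 5 μM final. Viability read by resazurin (100 μM final, 1-2 h, 37° C) fluorescence Ex 560/Em 590 nm; IC50 from 4-parameter variable-slope fit.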
(Alamar Blue is a resazurin reagent that responds to reducing activity.)

Data set [3] concerns the target T1, NLRP3. The experiment in a line: Human whole blood IL1β release assay. It is filed as cell-based. Also on record: Human whole blood in Li-heparin tubes was obtained from healthy donors; from tissue; host or cells: human whole blood from healthy donors, LPS-primed, nigericin-stimulated. The following applies: human whole blood, 1 μg/ml LPS, compound 3 hrs, nigericin 10 μM 1 hr, IL-1β AlphaLisa; read-out: HWB IC50. An outline of the steps: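 Healthy-donor human whole blood (Li-heparin) primed with 1 μg/ml LPS, with compound (8-point half-log, 10 μM top) or 0.1% DMSO for 3 h at 37 °C, then 10 μM nigericin (final) for 1 h. Supernatant IL-1β read by AlphaLISA; IC50 from 4-parameter variable-slope fit.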
Background: Bead proximity is the source of the signal in Alpha formats.

[4] abbreviates: intravenous administration, rat plasma.
Setting [5] is: oral administration, rat plasma.

Each structure is given as a SMILES string. Counter-ions that a name gives are not always drawn.

T1 sequence (Q96P20 whole entry): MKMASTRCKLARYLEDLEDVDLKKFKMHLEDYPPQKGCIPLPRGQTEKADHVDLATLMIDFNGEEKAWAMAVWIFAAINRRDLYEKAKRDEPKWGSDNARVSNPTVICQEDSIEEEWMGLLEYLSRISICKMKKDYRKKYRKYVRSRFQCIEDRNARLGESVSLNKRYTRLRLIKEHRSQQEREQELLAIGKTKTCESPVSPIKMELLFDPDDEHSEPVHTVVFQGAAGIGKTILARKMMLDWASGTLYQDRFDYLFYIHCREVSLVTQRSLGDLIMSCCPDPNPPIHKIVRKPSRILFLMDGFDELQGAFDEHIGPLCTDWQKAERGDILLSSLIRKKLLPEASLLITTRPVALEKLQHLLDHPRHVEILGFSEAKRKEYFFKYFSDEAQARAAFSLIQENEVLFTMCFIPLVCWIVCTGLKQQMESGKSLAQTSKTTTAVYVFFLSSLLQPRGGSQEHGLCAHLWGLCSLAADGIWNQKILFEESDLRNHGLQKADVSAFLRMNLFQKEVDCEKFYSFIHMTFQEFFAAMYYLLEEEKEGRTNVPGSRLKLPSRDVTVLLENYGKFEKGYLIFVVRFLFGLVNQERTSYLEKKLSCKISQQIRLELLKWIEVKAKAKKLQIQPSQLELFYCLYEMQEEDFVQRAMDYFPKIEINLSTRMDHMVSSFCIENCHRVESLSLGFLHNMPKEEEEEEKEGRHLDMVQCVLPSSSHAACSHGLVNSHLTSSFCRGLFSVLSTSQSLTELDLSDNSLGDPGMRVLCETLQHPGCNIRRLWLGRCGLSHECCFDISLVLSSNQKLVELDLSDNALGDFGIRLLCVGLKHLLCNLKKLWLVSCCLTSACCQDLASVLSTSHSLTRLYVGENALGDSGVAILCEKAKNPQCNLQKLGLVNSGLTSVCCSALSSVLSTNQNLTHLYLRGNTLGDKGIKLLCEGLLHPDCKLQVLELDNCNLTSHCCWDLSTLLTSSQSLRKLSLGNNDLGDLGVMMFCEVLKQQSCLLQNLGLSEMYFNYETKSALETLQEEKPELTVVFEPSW

In data set [1] (setting [4]), `CC(C)c1cccc(C(C)C)c1NC(=O)NS(=O)(=O)c1cc(C(=O)N(C)C)n(C)n1` [Example 167, 3-(N-((2,6-Diisopropylphenyl)carbamoyl)sulfamoyl)-N,N,1-trimethyl-1H-pyrazole-5-carboxamide, sodium salt] showed an AUC of 333.7 ng·h/mL, a Cl of 48.7 mL/min/kg, a T1/2 of 30 min and a Vdss of 0.99 L/kg. The IC50 on NLRP3 [2] is < 640 nM. In addition, on NLRP3 [3], the IC50 was < 400 nM.

In data set [1] (setting [4]), `CN(C)C(=O)c1cc(S(=O)(=O)NC(=O)Nc2c3c(cc4c2CCC4)CCC3)nn1C` [Example 169, 3-(N-((1,2,3,5,6,7-Hexahydro-s-indacen-4-yl)carbamoyl)sulfamoyl)-N,N,1-trimethyl-1H-pyrazole-5-carboxamide, sodium salt] came in with an AUC of 3389.9 ng·h/mL, a Cl of 24.8 mL/min/kg, a T1/2 of 1520 min and a Vdss of 17.78 L/kg. In data set [1] (setting [5]), this molecule had an exposure (AUC) of 1052.0 ng·h/mL, a Cl/F of 49.5 mL/min/kg, a Cmax of 599.6 ng/mL and a T1/2 of 204 min. Besides, the time of peak concentration (Tmax) in data set [1] (setting [5]) stood at 15 min. The molecule also showed a bioavailability in data set [1] (oral administration, rat) of 62.0. For the same molecule, the IC50 at NLRP3 [2] is < 160 nM. The half-maximal inhibitory concentration (IC50) on NLRP3 [3] was < 400 nM.

In data set [1] (setting [4]), `CN(CCO)C(=O)c1cc(S(=O)(=O)NC(=O)Nc2c3c(cc4c2CCC4)CCC3)nn1C` [Example 176, 3-(N-((1,2,3,5,6,7-Hexahydro-s-indacen-4-yl)carbamoyl)sulfamoyl)-N-(2-hydroxyethyl)-N,1-dimethyl-1H-pyrazole-5-carboxamide, partial ammonium salt] returned an AUC of 786.6 ng·h/mL, a Cl of 114.1 mL/min/kg, a T1/2 of 18 min and a Vdss of 2.37 L/kg. Also, the concentration for half-maximal inhibition (IC50) at NLRP3 [2] was < 160 nM. On NLRP3 [3], the IC50 is < 400 nM.

The term AUC denotes the area under the concentration-time curve, a measure of exposure. A word on the IC50: it is the concentration at which inhibition is half-maximal. What is called Cmax is the maximum level reached in the sampled fluid or tissue. Broadly, the Tmax is the time from dosing to the highest level.
